Reference: ChEMBL document CHEMBL1201862, “PubChem BioAssay data set” (2004)
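Results reflect a 48-hour exposure of cells in 96-well plates to compound at five concentrations. GI50 marks 50% less growth.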 The source made the active and inactive calls. Rule as the data show it: active = GI50 up to about 1.1 µM and inactive = higher.

What was measured:
Test in all cases: NCI tumour cell line growth inhibition, 48 h
NCI-H23 = tested on: NCI-H23
SR = tested on: SR
786-0 = tested on: 786-0
SK-MEL-5 = tested on: SK-MEL-5
SK-OV-3 = tested on: SK-OV-3
ACHN = tested on: ACHN
NCI-H522 = tested on: NCI-H522
OVCAR-3 = tested on: OVCAR-3
A549 = tested on: A549
A498 = tested on: A498
CCRF-CEM = tested on: CCRF-CEM
KM12 = tested on: KM12
RXF 393 = tested on: RXF 393
UACC-62 = tested on: UACC-62
HL-60 = tested on: HL-60
M14 = tested on: M14
RPMI-8226 = tested on: RPMI-8226
DU-145 = tested on: DU-145
MDA-MB-231 = tested on: MDA-MB-231
MCF7 = tested on: MCF7

Measured: GI50

COc1ccc2c(c1)C=C(C(C)(C)C)NS2(=O)=O
inactive: NCI-H23 > 100 µM | SR > 100 µM | 786-0 > 100 µM | SK-MEL-5 > 100 µM | SK-OV-3 > 100 µM | ACHN > 100 µM | NCI-H522 > 100 µM | OVCAR-3 > 100 µM | A549 > 100 µM | A498 > 100 µM | CCRF-CEM > 100 µM | KM12 > 100 µM | RXF 393 > 100 µM | UACC-62 > 100 µM | HL-60 > 100 µM | M14 > 100 µM

COc1cc(OC)c2c(c1OC)OCC(Cc1ccc(O)cc1)C2=O (stereo not drawn)
inactive: RPMI-8226 > 25 µM | NCI-H23 > 25 µM | SR > 25 µM | 786-0 > 25 µM | SK-MEL-5 19.8 µM | SK-OV-3 > 25 µM | ACHN > 25 µM | NCI-H522 > 25 µM | OVCAR-3 21 µM | A549 > 25 µM | A498 > 25 µM | DU-145 > 25 µM | MDA-MB-231 > 25 µM | CCRF-CEM > 25 µM | KM12 > 25 µM | RXF 393 20.3 µM | UACC-62 > 25 µM | HL-60 11.3 µM | M14 > 25 µM

CN(C)CC/C(=N\Nc1ccc(Cl)cc1)c1ccccc1
inactive: NCI-H23 1.95 µM | 786-0 1.26 µM | SK-MEL-5 1.7 µM | SK-OV-3 2.22 µM | NCI-H522 1.32 µM | OVCAR-3 1.51 µM | A549 1.47 µM | A498 3.64 µM | RXF 393 2.57 µM | M14 1.67 µM
active: RPMI-8226 0.64 µM | SR 0.415 µM | ACHN 0.478 µM | CCRF-CEM 0.417 µM | KM12 0.589 µM | UACC-62 0.556 µM | HL-60 0.369 µM

O=C1OC(OCC#CCOC2OC(=O)C(Cl)=C2Cl)C(Cl)=C1Cl (stereo not drawn)
inactive: RPMI-8226 3.57 µM | NCI-H23 15.6 µM | SR 2 µM | 786-0 4.86 µM | SK-MEL-5 18.2 µM | ACHN 16.2 µM | NCI-H522 1.7 µM | OVCAR-3 13.9 µM | A549 18.4 µM | DU-145 18.6 µM | CCRF-CEM 1.92 µM | KM12 18.9 µM | MCF7 6.17 µM | UACC-62 14.2 µM | M14 11.2 µM

CCN(CC)C(=O)COc1ccc(Br)cc1Br
inactive: RPMI-8226 > 100 µM | NCI-H23 82.6 µM | SR > 100 µM | 786-0 > 100 µM | SK-MEL-5 > 100 µM | SK-OV-3 > 100 µM | ACHN > 100 µM | NCI-H522 50.1 µM | OVCAR-3 > 100 µM | A549 > 100 µM | A498 > 100 µM | CCRF-CEM > 100 µM | KM12 > 100 µM | RXF 393 > 100 µM | UACC-62 38.8 µM | HL-60 83.9 µM | M14 > 100 µM

O=C(/N=c1/[nH]/c(=N/C(=O)c2ccccc2)ss1)c1ccccc1
inactive: RPMI-8226 6.35 µM | NCI-H23 19.3 µM | SR 24 µM | 786-0 25.5 µM | SK-MEL-5 5.11 µM | SK-OV-3 34.7 µM | ACHN 13.8 µM | NCI-H522 5.78 µM | OVCAR-3 13.1 µM | A549 11.4 µM | A498 23.4 µM | CCRF-CEM 16 µM | KM12 27.7 µM | RXF 393 29.7 µM | UACC-62 > 10 µM | HL-60 14.7 µM | M14 27.9 µM

O=c1c(C(c2ccc(O)cc2)c2c(O)oc3ccccc3c2=O)c(O)oc2ccccc12
inactive: NCI-H23 > 100 µM | 786-0 58.2 µM | SK-MEL-5 83.8 µM | ACHN > 100 µM | NCI-H522 22.5 µM | OVCAR-3 76.9 µM | A498 > 100 µM | DU-145 > 100 µM | MDA-MB-231 31.6 µM | CCRF-CEM 74.3 µM | KM12 > 100 µM | UACC-62 79.1 µM

N#CCc1ccc(C(C#N)/C(CCCC(=O)Nc2cccc([N+](=O)[O-])c2)=N/NC(N)=S)cc1 (stereo not drawn)
inactive: RPMI-8226 > 100 µM | NCI-H23 > 100 µM | SR > 100 µM | 786-0 > 100 µM | SK-MEL-5 > 100 µM | SK-OV-3 > 100 µM | ACHN > 100 µM | NCI-H522 27.9 µM | OVCAR-3 75.3 µM | A549 > 100 µM | A498 > 100 µM | CCRF-CEM 51.6 µM | KM12 > 100 µM | RXF 393 > 100 µM | UACC-62 44.1 µM | HL-60 > 100 µM | M14 > 100 µM

COC(=O)C(C(=O)C(=O)Nc1ccc(C)cc1)c1nc2ccc([N+](=O)[O-])cc2nc1O (stereo not drawn)
inactive: NCI-H23 > 100 µM | SR > 100 µM | 786-0 > 100 µM | SK-MEL-5 49.1 µM | SK-OV-3 > 100 µM | ACHN > 100 µM | NCI-H522 6.93 µM | OVCAR-3 > 100 µM | A549 > 100 µM | A498 > 100 µM | CCRF-CEM 36.1 µM | KM12 > 100 µM | RXF 393 > 100 µM | UACC-62 85.7 µM | HL-60 35.6 µM | M14 > 100 µM

Cc1ccc(S(=O)(=O)SCc2ccccc2CSS(=O)(=O)c2ccc(C)cc2)cc1
inactive: RPMI-8226 17.5 µM | NCI-H23 18.8 µM | SR 16.1 µM | 786-0 18.2 µM | SK-MEL-5 59.4 µM | SK-OV-3 > 100 µM | ACHN 29 µM | NCI-H522 10.9 µM | OVCAR-3 20.5 µM | A549 > 100 µM | A498 91.2 µM | KM12 59.7 µM | RXF 393 15.7 µM | UACC-62 15.8 µM | HL-60 12.1 µM | M14 19.1 µM

CC(=O)c1cccc(N2COC(C)(C)c3nc4ccccc4n3C2)c1
inactive: RPMI-8226 > 100 µM | NCI-H23 > 100 µM | SR > 100 µM | 786-0 > 100 µM | SK-OV-3 > 100 µM | ACHN > 100 µM | NCI-H522 > 100 µM | OVCAR-3 > 100 µM | A549 > 100 µM | A498 > 100 µM | CCRF-CEM > 100 µM | KM12 > 100 µM | RXF 393 > 100 µM | UACC-62 > 100 µM | HL-60 > 100 µM | M14 > 100 µM

Cc1ccc(-c2nc(Cc3n[nH]c(-c4ccc(C)cc4)n3)n[nH]2)cc1
inactive: RPMI-8226 > 100 µM | NCI-H23 18.3 µM | 786-0 > 100 µM | SK-MEL-5 > 100 µM | SK-OV-3 > 100 µM | ACHN 6.38 µM | NCI-H522 2.99 µM | OVCAR-3 > 100 µM | A549 > 100 µM | DU-145 > 100 µM | MDA-MB-231 > 100 µM | CCRF-CEM > 100 µM | KM12 > 100 µM | MCF7 > 100 µM | RXF 393 21.1 µM | UACC-62 4.86 µM | M14 > 100 µM

CCOC(=O)C1=NC(c2ccccc2)(c2ccccc2)OC1=C(Cl)Cl
inactive: RPMI-8226 19.1 µM | NCI-H23 > 100 µM | SR 19.8 µM | 786-0 > 100 µM | SK-MEL-5 39.5 µM | SK-OV-3 > 100 µM | ACHN 50.4 µM | NCI-H522 23.1 µM | OVCAR-3 42.2 µM | A549 54.6 µM | A498 > 100 µM | CCRF-CEM 33.6 µM | KM12 94 µM | UACC-62 99.8 µM | HL-60 11.9 µM | M14 85.9 µM
active: RXF 393 0.879 µM

CCCc1c(C(=O)OCC)[nH]c(C(=O)CCC(=O)c2[nH]c(C(=O)OCC)c(CCC)c2C(=O)OCC)c1C(=O)OCC
inactive: RPMI-8226 > 100 µM | NCI-H23 > 100 µM | SR > 100 µM | 786-0 54.6 µM | SK-MEL-5 > 100 µM | SK-OV-3 > 100 µM | ACHN > 100 µM | NCI-H522 > 100 µM | OVCAR-3 68.5 µM | A549 > 100 µM | A498 > 100 µM | CCRF-CEM > 100 µM | KM12 > 100 µM | RXF 393 70.5 µM | UACC-62 > 100 µM | HL-60 > 100 µM | M14 > 100 µM

COc1ccc(/C=C2\OC(=O)C(Cl)=C2c2ccc(OC)cc2)cc1
inactive: RPMI-8226 > 100 µM | SR > 100 µM | 786-0 45.6 µM | SK-MEL-5 > 100 µM | SK-OV-3 > 100 µM | ACHN > 100 µM | NCI-H522 66.2 µM | OVCAR-3 > 100 µM | A549 > 100 µM | A498 > 100 µM | DU-145 > 100 µM | MDA-MB-231 > 100 µM | CCRF-CEM > 100 µM | KM12 > 100 µM | UACC-62 > 100 µM | HL-60 > 100 µM | M14 > 100 µM

O=C(Cc1ccccc1)NN1C(=O)C(Cl)C1c1ccccc1Cl (stereo not drawn)
inactive: RPMI-8226 19.5 µM | NCI-H23 64.1 µM | SR 23.2 µM | 786-0 71.8 µM | SK-MEL-5 > 72.6 µM | SK-OV-3 > 100 µM | ACHN > 100 µM | NCI-H522 13.2 µM | OVCAR-3 > 62.7 µM | A549 > 100 µM | A498 > 100 µM | CCRF-CEM 14.1 µM | KM12 > 79.3 µM | RXF 393 48.8 µM | UACC-62 68.5 µM | HL-60 30.1 µM | M14 > 100 µM
